From article PMC10538940, “Evaluating Scalable Supervised Learning for Synthesize-on-Demand Chemical Libraries” (Journal of Chemical Information and Modeling, 2023) come the findings set out here.

Structures are written as SMILES.

In the experiment the target is PriA-SSB (Klebsiella pneumoniae subsp. pneumoniae, UniProt A6TGC5). Nature of the experiment: PriA-SSB AlphaScreen (AS) dose-response screen of Enamine REAL compounds. In kind it is biochemical, Klebsiella pneumonia. As to conditions: for Enamine Inactive (not confirmed as hit in full dose-response curves): eight concentrations 515.6 nm to 66 μm, includes some initial hits not confirmed. Here is the method: We screened the MLPCN compound library using an AlphaScreen (AS) assay at a single concentration (33.3 μm) following the same protocol previously used to screen the LC1234 libraries.[27],[28] Briefly, library compounds and controls were dispensed from 10 mM DMSO stocks into white 1536-well plates with an Echo 550 acoustic liquid handler. Next, 3 μL of a master mix was added to each well using a Mantis liquid handler with a high-volume silicone chip to yield a final reaction mixture containing 10 mM HEPES-HCl (pH 7.5), 150 mM NaCl, 1 mM MgCl2, 10 mM dithiothreitol, 1 mg/mL bovine serum albumin, 0.01% Triton X-100, 0.1 μM Klebsiella pneumonia PriA (with N-terminal 6×His tag), 0.1 μM Biotinylated-SSBct (N-Biotin-Trp-Met-Asp-Phe-Asp-Asp-Asp-Ile-Pro-Phe-C), 5 μg/mL of both AS acceptor and donor beads, and 33.3 μm of compound. For positive and negative control wells, the compound was replaced with 25 μM SSBct peptide (N-Trp-Met-Asp-Phe-Asp-Asp-Asp-Ile-Pro-Phe-C) or 25 μM ΔFSSBct (N-Trp-Met-Asp-Phe-Asp-Asp-Asp-Ile-Pro-C), respectively. Plates were centrifuged briefly and rocked for an hour at room temperature. Then, the AS signal of each well was measured with a PheraStar plate reader using a 0.1 s settling time, a 0.3 s excitation, a 0.04 s delay, and a 0.6 s integration time. AS signals for each well were adjusted as previously described to reduce the impact of plate and edge effects.[28] We calculated a Z′ factor for each plate[61] and repeated plates with Z′ < 0.5. In addition, we calculated the % inhibition relative to the controls for each compound. We retested compounds with ≥35% inhibition that also passed PAINS filters[62],[63] with the same assay to confirm activity.
PriA-SSB, sequence (A6TGC5 whole entry): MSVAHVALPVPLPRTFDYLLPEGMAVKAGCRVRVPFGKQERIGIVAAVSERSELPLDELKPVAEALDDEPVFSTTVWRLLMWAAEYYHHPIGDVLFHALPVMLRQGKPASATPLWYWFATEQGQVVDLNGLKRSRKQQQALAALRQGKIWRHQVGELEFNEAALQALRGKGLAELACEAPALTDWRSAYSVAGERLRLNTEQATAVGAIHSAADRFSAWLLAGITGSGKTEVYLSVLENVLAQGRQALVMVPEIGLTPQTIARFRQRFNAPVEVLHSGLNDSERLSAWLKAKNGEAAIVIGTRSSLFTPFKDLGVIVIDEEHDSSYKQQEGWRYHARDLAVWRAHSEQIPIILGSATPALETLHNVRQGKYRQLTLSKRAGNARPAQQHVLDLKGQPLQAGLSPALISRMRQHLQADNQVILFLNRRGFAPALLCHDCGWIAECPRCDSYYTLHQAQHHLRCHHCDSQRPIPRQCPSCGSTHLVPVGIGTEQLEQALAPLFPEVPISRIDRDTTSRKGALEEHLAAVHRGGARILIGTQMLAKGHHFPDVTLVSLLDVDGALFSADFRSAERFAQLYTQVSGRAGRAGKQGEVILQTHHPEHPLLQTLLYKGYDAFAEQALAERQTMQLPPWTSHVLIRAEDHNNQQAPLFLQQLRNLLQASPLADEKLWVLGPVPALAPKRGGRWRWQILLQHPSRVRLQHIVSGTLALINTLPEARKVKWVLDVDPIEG
All 68 compounds were initially screened in four replicates at eight concentrations ranging from 515.6 nm to 66 μm. We defined compounds whose median % inhibition at 33 μm was at least 50%, the same threshold used for the AMS screen, as initial hits. We repeated the dose–response curve screens for two additional rounds of ten compounds each, expanding the range of concentrations tested to improve the quality of the curve fits (Appendix A.9). We defined confirmed hits as those with a dose–response curve in curve class[82] 1.2 or in curve class 2.2 with an IC50 95% upper confidence limit within the tested range of concentrations. We used the Collaborative Drug Discovery Vault software[83] to fit dose–response curves, calculate IC50 values and the 95% upper and lower confidence limits, and define curve classes. […]
A.9 Enamine REAL Dose-Response Curves
We generated three sets of dose-response curves: eight-point curves with four replicates for all 68 Enamine compounds, 16-point curves with eight replicates for 10 compounds, and another set of 16-point curves with six replicates for 10 compounds. The eight-point dose-response curves started with an initial concentration of 66 µm and progressively divided the concentration in half until reaching 515.6 nm. Both 16-point dose-response curves started with an initial concentration of 100 µm, then 66.7 µm, and then progressively divided the concentration in half until reaching 4.2 nm. All dose-response screens followed the same protocol used for the MLPCN library. The dose-response curve images are available in our […]
We generated the 16-point dose-response curves because we were unable to reliably estab-lish IC50 values for some compounds in the eight-point screen. The minimum concentrations tested were not low enough. When reporting IC50 values and bounds in Table 4 we used the screening data from the highest-quality dose-response curve. The second set of 16-point curves were the highest quality because they had 16 concentrations and were unaﬀected by any spatial plate eﬀects. The ﬁrst set of 16-point curves were the next highest quality because they also had 16 concentrations and the most replicates. However, some of the readings at the lowest concentration in these curves were skewed due to assay spatial eﬀects at the plate […]
edge. […]
On the technique in general: Alpha assays give light when donor and acceptor beads are brought close together.

As to `O=C(Cc1ccc(S(=O)(=O)N2CCOCC2)s1)Nc1nc(-c2ccccn2)cs1` [Z29467739], the “Enamine Inactive (not confirmed as hit in full dose-response curves)” value was “Inactive”.

On to `Cc1cccc2nc(CSc3cccc4cccnc34)cn12` [Z56788250], for which the “Enamine Inactive (not confirmed as hit in full dose-response curves)” value is listed as “Inactive”.

`CCOC(=O)c1c(C)[nH]c(C(=O)CSc2cccc3cccnc23)c1C` [Z71173293]: the “Enamine Inactive (not confirmed as hit in full dose-response curves)” value is “Inactive”.

Turning to `Cc1ccc(-n2nc(C)cc2NC(=O)CSc2cccc3cccnc23)cc1` [Z71174619], the “Enamine Inactive (not confirmed as hit in full dose-response curves)” value is “Inactive”.

For the molecule `O=C(CN1C(=O)COc2ccc([N+](=O)[O-])cc21)Nc1nc(-c2ccccn2)cs1` [Z109132782], half-maximal inhibition (IC50) required 12.4 µM.

For `O=c1[nH]ncc(N/N=C/c2ccccn2)c1Cl` [Z114886052], the “Enamine Inactive (not confirmed as hit in full dose-response curves)” value is reported as “Inactive”.

As to `O=C(CSc1cccc2cccnc12)Nc1cccc(N2CCCC2=O)c1` [Z202503096], the “Enamine Inactive (not confirmed as hit in full dose-response curves)” value is recorded as “Inactive”.

As to `CCOC(=O)c1[nH]c(C)c(C(=O)CSc2cccc3cccnc23)c1C` [Z225905608], the “Enamine Inactive (not confirmed as hit in full dose-response curves)” value is “Inactive”.

For the molecule `c1cnc2c(Cn3ccnc3)cccc2c1` [Z241926076], the “Enamine Inactive (not confirmed as hit in full dose-response curves)” value was “Inactive”.

For `O=C(O)CSc1ccc([N+](=O)[O-])c2cccnc12` [Z285779920], the “Enamine Inactive (not confirmed as hit in full dose-response curves)” value was “Inactive”.

For `O=[N+]([O-])c1cc(Cl)cc(C=Nc2ccc(Cl)c3ncccc23)c1O` [Z314947084], the “Enamine Inactive (not confirmed as hit in full dose-response curves)” value is “Inactive”.

For `CC(C)N(C)S(=O)(=O)c1ccc(F)c(C(=O)Nc2nc(-c3ccccn3)cs2)c1` [Z339655406], the IC50 (usually the concentration at which inhibition is half-maximal) was determined as 6.8 µM.

As for `O=[N+]([O-])c1ncn(Cc2cccc3cccnc23)n1` [Z666250890], the “Enamine Inactive (not confirmed as hit in full dose-response curves)” value was “Inactive”.

With `Fc1cccc2[nH]c(-c3ccccn3)nc12` [Z666485712], the “Enamine Inactive (not confirmed as hit in full dose-response curves)” value was “Inactive”.

Regarding `Clc1cccnc1NN=Cc1ccccn1` [Z734817070], the “Enamine Inactive (not confirmed as hit in full dose-response curves)” value is reported as “Inactive”.

With `c1cnc2c(SCCn3cncn3)cccc2c1` [Z1116571364], the “Enamine Inactive (not confirmed as hit in full dose-response curves)” value is reported as “Inactive”.

`Nc1ncc(-c2ccccn2)cn1` [Z1255380138]: the “Enamine Inactive (not confirmed as hit in full dose-response curves)” value is “Inactive”.

As for `Cc1n[nH]c(SCC(=O)Nc2nnc(-c3ccccn3)[nH]2)n1` [Z1313381195], the IC50 was determined as 15.5 µM.

As to `O=c1[nH]c(NN=Cc2ccccn2)nc2ccccc12` [Z1407899729], the “Enamine Inactive (not confirmed as hit in full dose-response curves)” value is “Inactive”.

For the molecule `O=C(O)c1cc(C(=O)N2CCS(=O)(=O)CC2)ccn1` [Z1443864314], the “Enamine Inactive (not confirmed as hit in full dose-response curves)” value was “Inactive”.

In the case of `c1cncc(CSCc2cccc3cccnc23)c1` [Z2146195633], the “Enamine Inactive (not confirmed as hit in full dose-response curves)” value is reported as “Inactive”.

For the molecule `CCc1nc(C)c(CSc2cccc3cccnc23)o1` [Z2273856428], the “Enamine Inactive (not confirmed as hit in full dose-response curves)” value was “Inactive”.

Take `Cc1nn(C(C)C)cc1-c1ccc2cccnc2c1C` [Z2618185084]: the “Enamine Inactive (not confirmed as hit in full dose-response curves)” value is “Inactive”.

On to `CC(C)c1ncc(-c2cccc3cccnc23)n1C` [Z2739840324], for which the “Enamine Inactive (not confirmed as hit in full dose-response curves)” value is reported as “Inactive”.

In the case of `CC(C)(C)c1ncc(-c2cccc3cccnc23)o1` [Z2998111045], the “Enamine Inactive (not confirmed as hit in full dose-response curves)” value is “Inactive”.

As to `O=C(Nc1nc(-c2ccccn2)cs1)C1(C2CCCCO2)CCCO1` (stereo not drawn) [Z3075781550], the “Enamine Inactive (not confirmed as hit in full dose-response curves)” value is on record as “Inactive”.

Take `Cc1cc(-c2ccccn2)n[nH]1` [Z3225506284]: the “Enamine Inactive (not confirmed as hit in full dose-response curves)” value is recorded as “Inactive”.

As for `C1=C(c2cccc3cccnc23)CCNC1` [Z3238971184], the “Enamine Inactive (not confirmed as hit in full dose-response curves)” value was “Inactive”.

As to `c1ccc(-c2n[nH]c3ccccc23)nc1` [Z3242476057], the “Enamine Inactive (not confirmed as hit in full dose-response curves)” value is listed as “Inactive”.

Regarding `c1ccc(-c2csc(NC3COC4(CCC4)C3)n2)nc1` (stereo not drawn) [Z3295148399], the “Enamine Inactive (not confirmed as hit in full dose-response curves)” value was “Inactive”.

On to `O=C1CC2(CCOC2)C(C(=O)Nc2nc(-c3ccccn3)cs2)CN1` (stereo not drawn) [Z3297024656], for which the IC50 is 12.6 µM.

With `c1ccc(-c2cnc3n2CCC3)nc1` [Z3347084877], the “Enamine Inactive (not confirmed as hit in full dose-response curves)” value is recorded as “Inactive”.

`CC1CC(Nc2nc(-c3ccccn3)nc3c2CCC3)CC(C)N1` (stereo not drawn) [Z3395547714] yielded a 50% inhibitory concentration (IC50) of 12.1 µM.

As for `c1cc2c(c(-c3cccc4cccnc34)c1)CNC2` [Z3484513235], the “Enamine Inactive (not confirmed as hit in full dose-response curves)” value is given as “Inactive”.

With `OCCCN(CCO)c1ccc2ccc3cccnc3c2n1` [Z3557694708], the “Enamine Inactive (not confirmed as hit in full dose-response curves)” value is listed as “Inactive”.

On to `CN(C)CCN(C)c1ccc2ccc3cccnc3c2n1` [Z3557781825], for which the “Enamine Inactive (not confirmed as hit in full dose-response curves)” value is “Inactive”.

As to `COC(C)COc1ccc2ccc3cccnc3c2n1` (stereo not drawn) [Z3634004206], the “Enamine Inactive (not confirmed as hit in full dose-response curves)” value is on record as “Inactive”.

On to `CC1(C)CC(CSc2cccc3cccnc23)=NO1` [Z3638513333], for which the “Enamine Inactive (not confirmed as hit in full dose-response curves)” value is given as “Inactive”.

Consider `Clc1ccc(CN2CCOCCOCC2)c2ncccc12` [Z3652859018], for which the “Enamine Inactive (not confirmed as hit in full dose-response curves)” value is reported as “Inactive”.
